Laboratory results published in patent US20150079590A1, “CHARACTERIZATION AND ANALYSIS OF THE COMPOSITION AND DYNAMICS OF THE MAMMALIAN RIBOPROTEOME” (Beth Israel Deaconess Medical Center, Inc., priority 2013, published 2015).

Assays:
[1] = test system: binding of LARP1 at the polysome; assay: Micrococcal nuclease (MN) assay on pooled sucrose gradient fractions, ribosome pelleting and western blot; settings: cells treated with PP242 prior to analysis
Description: Pooled sucrose gradient fractions containing LARP1 protein, were treated with and without MN. Ribosomes were subsequently pelleted by ultracentrifugation, and the protein in supernatant and pellet isolated for western blot analysis.

[2] = test system: riboproteomes of PPC1 prostate cancer cells; assay: SILAC riboproteomic analysis of polysomes upon mTOR inhibition; type: cell-based, human
Description: SILAC labeled protein mixtures were run by SDS-PAGE and gel lanes were cut into 8 sections for overnight digestion at pH 8.0 with modified sequencing grade trypsin (Promega Corp.). Peptide mixtures were eluted and each gel section was analyzed separately by microcapillary liquid chromatography-tandem mass spectrometry (LC-MS/MS) using the EASY-nLC nanoflow HPLC (Thermo Fisher Scientific) with a 75 μm inner diameter×15 cm length Picofrit capillary column (New Objective, Inc.) self-packed with 5 μm Magic C18 resin (Michrom Bioresources) coupled to a hybrid LTQ Orbitrap XL-ETD mass spectrometer (Thermo Fisher Scientific). The LTQ Orbitrap XL was operated in data-dependent acquisition (DDA) Top 5 mode (1 profile FT-MS spectrum followed by 6 centroided IT-MS/MS spectra). The resolution was 30,000 in FT-MS mode and MS/MS spectra were read out at low resolution in the LTQ XL ion trap. […] Carbamidomethylation of cysteine was set as fixed modification and variable modifications were oxidation of methionine and protein N-acetylation. […] Initial peptide mass tolerance was set to 12 ppm and fragment ion mass tolerance was set to 0.8 Da. Two missed cleavages were allowed and the minimal length required for a peptide was six amino acids. […]

[3] = test system: ribosome-mRNA complexes of PC3 prostate cancer cells; assay: Puromycin-mediated dissociation of ribosome-mRNA complexes, western blot of polysomal fractions; type: biochemical, human; settings: 1 mM puromycin in lysis buffer, 37° C. 15 min
Description: Puromycin-induced polysome dissociation was carried out by the addition of 1 mM puromycin directly to the lysis buffer lacking cycloheximide as previously described (Blobel and Sabatini, Proc Natl Acad Sci USA 68:390-394, 1971; Fuchs et al., J Mol Biol. 410:118-130, 2011). Briefly, following lysis, the samples were incubated at 37° C. for 15 min to dissociate ribosome-mRNA complexes. Lysates were centrifuged at 13,000 rpm for 5 min at 4° C., and the supernatant carefully removed and loaded on a 15%-50% sucrose gradient. Gradients were centrifuged and fractionated as described above.
Cells were lysed in lysis buffer containing Complete Mini protease inhibitors (EDTA free) (Roche) and a Phosphatase Inhibitor cocktail (Thermo Scientific). 5-50 μg of total protein was subjected to SDS-PAGE on 4-12% Bis-Tris acrylamide NuPAGE gels in MOPS SDS running buffer (Invitrogen). The following primary antibodies were used: MARCKS, phospho-MARCKS (S152/156), Integrin β1, Calmodulin, Hsp27, Hsp60, RpL13a, RpL7a, and RpS6 (all Cell Signaling), HSP90, (BD Bioscience; BD Transduction Laboratories), hnRNPC1/C2 (Millipore), Rps14 and β-actin (all from Santa Cruz Biotechnologies). The NPM antibody was from DAKO and the IGF2BP3 antibody was from ProteinTech. Subsequently, membranes were incubated with secondary, HRP-tagged antibodies (Amersham) and signals were visualized with ECL or ECL plus (Amersham). […]

SMILES	LARP1 in supernatant after ribosome pelleting [1]	PABP association with polysome fractions [1]	disassociation of proteins incl. ribosomal proteins (RpL4, RpL6, RpS6) from the riboproteome ([2]; PP242 500 nM for three hours vs DMSO)	impact on the composition of the riboproteome ([2]; rapamycin 20 nM or PP242 500 nM for three hours vs DMSO, SILAC mass spectrometry of polysomes)	RpS6 and RpL13a on polyribosomes ([3]; pooled polysomal fractions)	presence of MARCKS in polyribosome fractions ([3]; PC3 cells)
CC(C)n1nc(-c2cc3cc(O)ccc3[nH]2)c2c(N)ncnc21 [PP242]	more LARP1 observed in the supernatant	remain tightly intact with polysome fractions	rapid and significant disassociation from the riboproteome	much stronger and more robust perturbation of the riboproteome	–	–
COc1ccc(C[C@H](N)C(=O)N[C@H]2[C@@H](O)[C@H](n3cnc4c(N(C)C)ncnc43)O[C@@H]2CO)cc1 [puromycin]	–	–	–	–	loss of RpS6 and RpL13a from polyribosomes	dramatically decreased
